Patent US12024499B2, “Muscarinic agonists” (Heptares Therapeutics Limited, priority 2015, dated 2024)

Experiments:
Format in all cases: cell-based
[1] = target: T1, human muscarinic M1 receptor (Homo sapiens, UniProt P11229); experiment: Alphascreen Surefire phospho-ERK1/2 assay, M1; settings: for EC50: CHO cells stably expressing human M1, agonist 5 min, 37° C., read-out: pEC50 M1 (converted); for Emax: CHO, read-out: % Emax cf. ACh, M1
T1 sequence (P11229 1-460): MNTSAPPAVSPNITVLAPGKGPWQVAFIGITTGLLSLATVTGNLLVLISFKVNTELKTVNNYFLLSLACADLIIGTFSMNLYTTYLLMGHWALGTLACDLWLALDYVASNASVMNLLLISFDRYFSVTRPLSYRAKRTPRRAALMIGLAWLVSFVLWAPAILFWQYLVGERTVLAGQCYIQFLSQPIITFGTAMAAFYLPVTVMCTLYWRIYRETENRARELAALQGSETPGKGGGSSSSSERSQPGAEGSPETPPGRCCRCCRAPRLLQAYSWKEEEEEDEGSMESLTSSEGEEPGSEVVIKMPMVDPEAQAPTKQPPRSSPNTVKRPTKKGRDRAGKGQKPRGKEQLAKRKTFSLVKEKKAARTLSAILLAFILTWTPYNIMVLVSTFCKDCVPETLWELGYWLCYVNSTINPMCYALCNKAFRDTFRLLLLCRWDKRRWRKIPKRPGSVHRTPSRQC
Method: (§1) ERK1/2 phosphorylation is a downstream consequence of both Gq/11 and Gi/o protein coupled receptor activation, making it highly suitable for the assessment of M1, M3 (Gq/11 coupled) and M2, M4 receptors (Gi/o coupled), rather than using different assay formats for different receptor subtypes. CHO cells stably expressing the human muscarinic M1, M2, M3 or M4 receptor were plated (25K/well) onto 96-well tissue culture plates in MEM-alpha+10% dialysed FBS. Once adhered, cells were serum-starved overnight. Agonist stimulation was performed by the addition of 5 μL agonist to the cells for 5 min (37° C.). Media was removed and 50 μL of lysis buffer added. After 15 min, a 4 μL sample was transferred to 384-well plate and 7 μL of detection mixture added. Plates were incubated for 2 h with gentle agitation in the dark and then read on a PHERAstar plate reader.
(§2) pEC50 and Emax figures were calculated from the resulting data for each receptor subtype.

[2] = target: T2, human muscarinic M4 receptor (Homo sapiens, UniProt P08173); experiment: Alphascreen Surefire phospho-ERK1/2 assay, M4; settings: for EC50: CHO cells stably expressing human M4, agonist 5 min, 37° C., read-out: pEC50 M4 (converted); for Emax: CHO, read-out: % Emax cf. ACh, M4
T2 construct: expressed in transfected cells
T2 sequence (P08173 1-479): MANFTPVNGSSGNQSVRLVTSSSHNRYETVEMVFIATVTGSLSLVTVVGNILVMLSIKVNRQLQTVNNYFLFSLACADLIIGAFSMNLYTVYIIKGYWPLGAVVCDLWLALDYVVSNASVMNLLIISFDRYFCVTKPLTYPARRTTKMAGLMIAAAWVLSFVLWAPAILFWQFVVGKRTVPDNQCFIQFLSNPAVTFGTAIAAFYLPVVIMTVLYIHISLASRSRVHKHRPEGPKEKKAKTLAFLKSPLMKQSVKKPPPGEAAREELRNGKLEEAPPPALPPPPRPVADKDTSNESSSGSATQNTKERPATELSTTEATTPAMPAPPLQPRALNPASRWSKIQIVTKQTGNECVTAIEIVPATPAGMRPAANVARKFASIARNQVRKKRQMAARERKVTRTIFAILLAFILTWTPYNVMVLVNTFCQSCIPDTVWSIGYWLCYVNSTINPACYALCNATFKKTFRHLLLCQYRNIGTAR
Method: as §1, §2

[3] = target: T3, human muscarinic M3 receptor (Homo sapiens, UniProt P20309); experiment: Alphascreen Surefire phospho-ERK1/2 assay, M3; settings: for EC50: CHO cells stably expressing human M3, agonist 5 min, 37° C., read-out: pEC50 M3 (converted); for Emax: CHO, read-out: % Emax cf. ACh, M3
T3 construct: expressed in transfected cells
T3 sequence (P20309 whole entry): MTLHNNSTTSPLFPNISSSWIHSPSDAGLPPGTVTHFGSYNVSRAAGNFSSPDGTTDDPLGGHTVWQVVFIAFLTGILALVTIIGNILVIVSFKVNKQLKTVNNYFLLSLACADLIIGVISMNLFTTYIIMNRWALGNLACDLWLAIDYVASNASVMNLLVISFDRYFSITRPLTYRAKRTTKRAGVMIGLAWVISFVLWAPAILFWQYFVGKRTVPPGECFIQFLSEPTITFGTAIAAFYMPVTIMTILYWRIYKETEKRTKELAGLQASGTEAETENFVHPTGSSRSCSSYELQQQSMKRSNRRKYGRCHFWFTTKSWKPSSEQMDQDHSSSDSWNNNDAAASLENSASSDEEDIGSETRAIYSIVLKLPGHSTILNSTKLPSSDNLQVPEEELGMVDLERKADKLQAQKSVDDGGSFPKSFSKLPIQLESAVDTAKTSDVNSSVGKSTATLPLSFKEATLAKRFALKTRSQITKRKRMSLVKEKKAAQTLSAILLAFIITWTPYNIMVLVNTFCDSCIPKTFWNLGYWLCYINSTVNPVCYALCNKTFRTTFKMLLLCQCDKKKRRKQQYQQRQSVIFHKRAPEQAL
Method: as §1, §2

[4] = target: T4, human muscarinic M2 receptor (Homo sapiens, UniProt P08172); experiment: Alphascreen Surefire phospho-ERK1/2 assay, M2; settings: for EC50: CHO cells stably expressing human M2, agonist 5 min, 37° C., read-out: pEC50 M2 (converted); for Emax: CHO, read-out: % Emax cf. ACh, M2
T4 sequence (P08172 1-466): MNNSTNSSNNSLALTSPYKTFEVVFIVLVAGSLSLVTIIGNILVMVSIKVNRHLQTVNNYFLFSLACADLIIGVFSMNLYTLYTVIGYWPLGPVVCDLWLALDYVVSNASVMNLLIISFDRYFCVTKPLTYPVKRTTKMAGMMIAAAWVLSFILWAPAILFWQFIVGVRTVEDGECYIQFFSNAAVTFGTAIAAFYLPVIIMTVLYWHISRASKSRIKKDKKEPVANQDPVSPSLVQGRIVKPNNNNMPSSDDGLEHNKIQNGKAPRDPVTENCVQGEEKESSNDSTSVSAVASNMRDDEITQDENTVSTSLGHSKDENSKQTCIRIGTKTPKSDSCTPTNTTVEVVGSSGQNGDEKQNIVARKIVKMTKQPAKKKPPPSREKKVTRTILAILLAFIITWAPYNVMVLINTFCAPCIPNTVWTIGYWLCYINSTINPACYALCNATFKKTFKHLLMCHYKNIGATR
Method: as §1, §2

SMILES | EC50 [1] [nM] | Emax [1] [%] | EC50 [2] [nM] | Emax [2] [%] | EC50 [3] [nM] | Emax [3] [%] | EC50 [4] [nM] | Emax [4] [%]
CCOC(=O)N1CCC2(CC(N3CCC(N4CC(F)(F)C4)CC3)C2)C1 (single isomer, unassigned) [Example 1-1, Ethyl 2-[4-(3,3-difluoroazetidin-1-yl)piperidin-1-yl]-6-azaspiro[3.4]octane-6-carboxylate] | 1000 | 24 | 158 | 26 | – | – | – | –
CCOC(=O)N1CCC2(CC(N3CCC(N4CC[C@@H]4C(=O)OC)CC3)C2)C1 (single isomer, unassigned) [Example 1-2] | > 20000 | 37 | 63.1 | 67 | > 20000 | 7 | > 20000 | 7
CCOC(=O)N1CCC2(CC(N3CCC(N4CCC4=O)CC3)C2)C1 (single isomer, unassigned) [Example 1-3, Ethyl 2-[4-(2-oxoazetidin-1-yl)piperidin-1-yl]-6-azaspiro[3.4]octane-6-carboxylate] | > 20000 | 20 | 200 | 23 | – | – | – | –

Second part, the molecule after the results:

EC50 [1] [nM] | Emax [1] [%] | EC50 [2] [nM] | Emax [2] [%] | EC50 [3] [nM] | Emax [3] [%] | EC50 [4] [nM] | Emax [4] [%] | SMILES
> 20000 | 18 | 158 | 41 | – | – | – | – | CCOC(=O)N1CCC2(CC(N3CCC(N4C(=O)C[C@@H]4C)CC3)C2)C1 (single isomer, unassigned) [Example 1-4]
316 | 69 | 100 | 56 | > 20000 | 0 | > 20000 | 37 | CCOC(=O)N1CCC2(CC(N3CCC(N4C(=O)C[C@@H]4CC)CC3)C2)C1 (single isomer, unassigned) [Example 1-5]
> 20000 | 13 | 251 | 74 | – | – | – | – | CCOC(=O)N1CCC2(CC(N3CCC(N4C(=O)C[C@H]4C)CC3)C2)C1 (single isomer, unassigned) [Example 1-6]
794 | 94 | 79.4 | 101 | > 20000 | 21 | 501 | 26 | CCOC(=O)N1CCC2(CC(N3CCC(N4C(=O)C[C@H]4CC)CC3)C2)C1 (single isomer, unassigned) [Example 1-7]
